In ChEMBL document CHEMBL3991601, “The target landscape of clinical kinase drugs” (Science, 2017):
The source made the active and inactive calls.

Key:
[1] = target: Serine/threonine-protein kinase MRCK gamma (Homo sapiens, UniProt Q6DT37)
[2] = target: Protein kinase C delta type (Homo sapiens, UniProt Q05655)
[3] = target: T1, Membrane-associated tyrosine- and threonine-specific cdc2-inhibitory kinase (Homo sapiens, UniProt Q99640)
T1 sequence (Q99640 whole entry): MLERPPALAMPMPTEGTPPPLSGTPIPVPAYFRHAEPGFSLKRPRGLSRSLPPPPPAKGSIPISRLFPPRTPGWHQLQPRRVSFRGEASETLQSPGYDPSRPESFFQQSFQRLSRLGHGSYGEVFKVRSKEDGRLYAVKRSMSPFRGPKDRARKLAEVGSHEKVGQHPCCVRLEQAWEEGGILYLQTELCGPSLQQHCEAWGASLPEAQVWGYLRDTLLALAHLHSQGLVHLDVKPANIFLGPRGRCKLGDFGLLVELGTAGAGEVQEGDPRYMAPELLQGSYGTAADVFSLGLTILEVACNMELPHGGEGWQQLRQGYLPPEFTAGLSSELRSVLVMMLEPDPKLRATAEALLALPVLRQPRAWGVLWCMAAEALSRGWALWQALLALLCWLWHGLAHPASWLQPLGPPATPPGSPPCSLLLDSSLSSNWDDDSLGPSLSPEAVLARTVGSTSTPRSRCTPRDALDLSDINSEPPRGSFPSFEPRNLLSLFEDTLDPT

[4] = target: T2, Septin-9 (Homo sapiens, UniProt Q9UHD8)
T2 sequence (Q9UHD8 whole entry): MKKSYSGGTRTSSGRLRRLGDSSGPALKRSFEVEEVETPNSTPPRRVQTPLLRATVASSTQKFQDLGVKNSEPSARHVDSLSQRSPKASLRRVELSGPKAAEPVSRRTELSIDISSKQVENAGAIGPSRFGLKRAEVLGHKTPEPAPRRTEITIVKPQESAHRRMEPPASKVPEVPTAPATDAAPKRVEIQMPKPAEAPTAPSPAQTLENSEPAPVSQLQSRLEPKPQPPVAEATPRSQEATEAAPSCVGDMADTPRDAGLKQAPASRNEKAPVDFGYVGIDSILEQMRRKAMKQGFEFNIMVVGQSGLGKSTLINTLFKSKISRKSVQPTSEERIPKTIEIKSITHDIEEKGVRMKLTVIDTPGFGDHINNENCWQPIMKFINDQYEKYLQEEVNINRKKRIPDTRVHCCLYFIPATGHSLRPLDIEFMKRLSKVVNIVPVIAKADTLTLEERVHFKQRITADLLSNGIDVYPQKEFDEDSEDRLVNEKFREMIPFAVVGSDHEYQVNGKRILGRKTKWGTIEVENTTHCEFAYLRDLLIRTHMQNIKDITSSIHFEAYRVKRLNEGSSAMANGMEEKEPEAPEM

[5] = target: Mitogen-activated protein kinase 3 (Homo sapiens, UniProt P27361)
Chain of Mitogen-activated protein kinase 3 (P27361 whole entry): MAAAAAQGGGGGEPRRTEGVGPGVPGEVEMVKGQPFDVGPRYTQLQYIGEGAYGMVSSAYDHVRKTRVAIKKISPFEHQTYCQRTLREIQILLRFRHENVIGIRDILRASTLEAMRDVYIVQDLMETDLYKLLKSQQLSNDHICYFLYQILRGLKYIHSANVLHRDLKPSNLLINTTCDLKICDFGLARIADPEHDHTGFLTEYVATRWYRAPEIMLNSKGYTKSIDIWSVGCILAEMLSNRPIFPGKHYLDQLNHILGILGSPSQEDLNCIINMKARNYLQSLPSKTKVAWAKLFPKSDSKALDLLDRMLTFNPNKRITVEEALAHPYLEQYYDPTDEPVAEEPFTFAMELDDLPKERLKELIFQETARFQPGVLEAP

[6] = target: Serine/threonine-protein kinase/endoribonuclease IRE1 (Homo sapiens, UniProt O75460)
Chain of Serine/threonine-protein kinase/endoribonuclease IRE1 (O75460 whole entry): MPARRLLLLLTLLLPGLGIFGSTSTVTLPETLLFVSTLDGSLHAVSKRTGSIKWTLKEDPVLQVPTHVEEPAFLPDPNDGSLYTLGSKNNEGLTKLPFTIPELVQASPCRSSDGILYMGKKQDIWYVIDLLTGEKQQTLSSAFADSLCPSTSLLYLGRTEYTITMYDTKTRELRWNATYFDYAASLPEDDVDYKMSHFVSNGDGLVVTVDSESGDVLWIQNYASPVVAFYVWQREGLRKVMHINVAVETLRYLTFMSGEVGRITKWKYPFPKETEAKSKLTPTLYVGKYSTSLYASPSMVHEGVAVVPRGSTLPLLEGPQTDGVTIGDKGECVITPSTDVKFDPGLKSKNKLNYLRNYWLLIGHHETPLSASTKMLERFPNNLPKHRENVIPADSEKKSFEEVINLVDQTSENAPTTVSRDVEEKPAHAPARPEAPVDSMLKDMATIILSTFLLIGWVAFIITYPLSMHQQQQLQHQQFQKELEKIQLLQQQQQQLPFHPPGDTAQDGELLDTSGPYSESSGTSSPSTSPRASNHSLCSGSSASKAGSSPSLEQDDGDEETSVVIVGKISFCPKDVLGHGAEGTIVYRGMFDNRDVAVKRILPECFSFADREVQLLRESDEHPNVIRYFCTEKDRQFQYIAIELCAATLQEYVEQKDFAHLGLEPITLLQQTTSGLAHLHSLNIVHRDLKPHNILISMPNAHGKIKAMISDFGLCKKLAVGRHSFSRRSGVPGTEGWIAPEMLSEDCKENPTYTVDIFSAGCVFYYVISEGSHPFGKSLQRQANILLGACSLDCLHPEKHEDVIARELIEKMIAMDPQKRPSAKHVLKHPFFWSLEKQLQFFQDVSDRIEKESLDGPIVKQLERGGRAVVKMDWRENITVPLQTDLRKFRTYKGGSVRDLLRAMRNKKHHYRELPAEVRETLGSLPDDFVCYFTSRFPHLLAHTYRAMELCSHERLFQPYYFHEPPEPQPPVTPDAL

[7] = target: Calcium/calmodulin-dependent protein kinase type II subunit gamma (Homo sapiens, UniProt Q13555)
Chain of Calcium/calmodulin-dependent protein kinase type II subunit gamma (Q13555 whole entry): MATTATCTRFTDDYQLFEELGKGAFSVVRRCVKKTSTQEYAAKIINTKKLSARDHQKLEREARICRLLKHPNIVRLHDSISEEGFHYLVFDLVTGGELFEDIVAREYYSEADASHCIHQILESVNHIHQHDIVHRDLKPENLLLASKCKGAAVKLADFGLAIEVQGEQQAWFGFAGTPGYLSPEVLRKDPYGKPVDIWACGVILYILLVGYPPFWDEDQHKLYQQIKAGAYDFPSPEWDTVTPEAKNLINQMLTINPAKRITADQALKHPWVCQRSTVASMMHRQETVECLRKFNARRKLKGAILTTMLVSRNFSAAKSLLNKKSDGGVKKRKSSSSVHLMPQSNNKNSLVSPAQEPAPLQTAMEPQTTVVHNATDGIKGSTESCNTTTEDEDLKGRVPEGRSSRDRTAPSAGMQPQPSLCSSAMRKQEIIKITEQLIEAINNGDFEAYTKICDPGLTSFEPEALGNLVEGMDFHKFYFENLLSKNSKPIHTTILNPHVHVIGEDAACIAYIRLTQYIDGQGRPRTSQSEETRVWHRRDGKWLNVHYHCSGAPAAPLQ

[8] = target: Ribosomal protein S6 kinase alpha-5 (Homo sapiens, UniProt O75582)
Chain of Ribosomal protein S6 kinase alpha-5 (O75582 whole entry): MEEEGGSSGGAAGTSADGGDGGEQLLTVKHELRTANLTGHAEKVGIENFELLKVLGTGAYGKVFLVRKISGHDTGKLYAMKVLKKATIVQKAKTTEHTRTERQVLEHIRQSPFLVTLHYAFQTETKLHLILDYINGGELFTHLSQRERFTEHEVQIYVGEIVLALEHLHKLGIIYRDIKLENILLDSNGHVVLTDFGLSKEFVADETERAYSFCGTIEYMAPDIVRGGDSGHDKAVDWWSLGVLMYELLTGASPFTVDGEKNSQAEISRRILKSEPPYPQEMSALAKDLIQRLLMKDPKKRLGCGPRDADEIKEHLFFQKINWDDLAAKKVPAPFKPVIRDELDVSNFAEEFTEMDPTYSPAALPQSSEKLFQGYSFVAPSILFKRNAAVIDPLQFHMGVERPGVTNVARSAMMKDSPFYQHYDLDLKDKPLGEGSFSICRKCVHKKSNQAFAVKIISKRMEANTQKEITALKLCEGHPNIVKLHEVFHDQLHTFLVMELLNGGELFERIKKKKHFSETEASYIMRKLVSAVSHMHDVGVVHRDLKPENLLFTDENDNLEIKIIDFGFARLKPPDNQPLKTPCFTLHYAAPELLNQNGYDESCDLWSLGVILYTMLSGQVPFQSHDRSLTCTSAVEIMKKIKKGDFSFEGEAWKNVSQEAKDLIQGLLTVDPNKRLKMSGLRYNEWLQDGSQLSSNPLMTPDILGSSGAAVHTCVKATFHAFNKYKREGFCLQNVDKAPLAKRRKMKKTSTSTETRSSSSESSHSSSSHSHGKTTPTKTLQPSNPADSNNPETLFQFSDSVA

[9] = target: T3, Serine/threonine-protein kinase D2 (Homo sapiens, UniProt Q9BZL6)
T3 sequence (Q9BZL6 whole entry): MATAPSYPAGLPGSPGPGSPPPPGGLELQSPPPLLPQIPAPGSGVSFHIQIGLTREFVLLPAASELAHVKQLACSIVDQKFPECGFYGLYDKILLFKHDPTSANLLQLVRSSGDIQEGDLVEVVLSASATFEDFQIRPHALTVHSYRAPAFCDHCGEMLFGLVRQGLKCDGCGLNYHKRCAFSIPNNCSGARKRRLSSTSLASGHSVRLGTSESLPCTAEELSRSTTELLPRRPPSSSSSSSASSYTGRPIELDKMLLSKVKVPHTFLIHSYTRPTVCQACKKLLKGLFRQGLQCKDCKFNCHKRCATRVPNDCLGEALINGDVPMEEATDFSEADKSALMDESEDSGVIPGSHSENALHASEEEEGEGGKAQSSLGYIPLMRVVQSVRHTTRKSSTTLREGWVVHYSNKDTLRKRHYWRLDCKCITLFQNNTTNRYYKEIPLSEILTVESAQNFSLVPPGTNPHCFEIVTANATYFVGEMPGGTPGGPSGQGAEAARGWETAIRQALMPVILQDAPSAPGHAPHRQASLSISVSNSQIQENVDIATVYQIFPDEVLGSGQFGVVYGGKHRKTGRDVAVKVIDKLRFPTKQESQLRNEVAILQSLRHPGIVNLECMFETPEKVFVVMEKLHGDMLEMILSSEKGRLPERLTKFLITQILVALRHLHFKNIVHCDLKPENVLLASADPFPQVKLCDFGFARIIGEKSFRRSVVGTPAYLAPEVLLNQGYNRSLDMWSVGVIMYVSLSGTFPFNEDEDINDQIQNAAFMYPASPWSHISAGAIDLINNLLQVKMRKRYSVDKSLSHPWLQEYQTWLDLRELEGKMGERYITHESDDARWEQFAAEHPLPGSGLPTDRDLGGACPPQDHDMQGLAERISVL

[10] = target: T4, Scaffold protein ILK (Homo sapiens, UniProt Q13418)
T4 sequence (Q13418 whole entry): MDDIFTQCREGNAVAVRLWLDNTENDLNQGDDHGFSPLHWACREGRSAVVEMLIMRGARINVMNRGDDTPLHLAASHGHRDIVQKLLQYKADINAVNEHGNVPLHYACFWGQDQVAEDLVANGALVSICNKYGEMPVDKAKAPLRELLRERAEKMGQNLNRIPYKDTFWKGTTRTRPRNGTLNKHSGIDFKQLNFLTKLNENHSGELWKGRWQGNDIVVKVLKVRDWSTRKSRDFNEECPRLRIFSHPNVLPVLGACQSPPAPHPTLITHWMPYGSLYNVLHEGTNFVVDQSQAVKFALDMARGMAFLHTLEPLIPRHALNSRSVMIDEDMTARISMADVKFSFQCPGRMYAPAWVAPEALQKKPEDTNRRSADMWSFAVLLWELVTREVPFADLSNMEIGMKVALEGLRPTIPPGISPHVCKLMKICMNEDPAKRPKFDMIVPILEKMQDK
Further: in the data inactive means no Kd found up to 30 µM.

Chain of Serine/threonine-protein kinase MRCK gamma (Q6DT37 whole entry): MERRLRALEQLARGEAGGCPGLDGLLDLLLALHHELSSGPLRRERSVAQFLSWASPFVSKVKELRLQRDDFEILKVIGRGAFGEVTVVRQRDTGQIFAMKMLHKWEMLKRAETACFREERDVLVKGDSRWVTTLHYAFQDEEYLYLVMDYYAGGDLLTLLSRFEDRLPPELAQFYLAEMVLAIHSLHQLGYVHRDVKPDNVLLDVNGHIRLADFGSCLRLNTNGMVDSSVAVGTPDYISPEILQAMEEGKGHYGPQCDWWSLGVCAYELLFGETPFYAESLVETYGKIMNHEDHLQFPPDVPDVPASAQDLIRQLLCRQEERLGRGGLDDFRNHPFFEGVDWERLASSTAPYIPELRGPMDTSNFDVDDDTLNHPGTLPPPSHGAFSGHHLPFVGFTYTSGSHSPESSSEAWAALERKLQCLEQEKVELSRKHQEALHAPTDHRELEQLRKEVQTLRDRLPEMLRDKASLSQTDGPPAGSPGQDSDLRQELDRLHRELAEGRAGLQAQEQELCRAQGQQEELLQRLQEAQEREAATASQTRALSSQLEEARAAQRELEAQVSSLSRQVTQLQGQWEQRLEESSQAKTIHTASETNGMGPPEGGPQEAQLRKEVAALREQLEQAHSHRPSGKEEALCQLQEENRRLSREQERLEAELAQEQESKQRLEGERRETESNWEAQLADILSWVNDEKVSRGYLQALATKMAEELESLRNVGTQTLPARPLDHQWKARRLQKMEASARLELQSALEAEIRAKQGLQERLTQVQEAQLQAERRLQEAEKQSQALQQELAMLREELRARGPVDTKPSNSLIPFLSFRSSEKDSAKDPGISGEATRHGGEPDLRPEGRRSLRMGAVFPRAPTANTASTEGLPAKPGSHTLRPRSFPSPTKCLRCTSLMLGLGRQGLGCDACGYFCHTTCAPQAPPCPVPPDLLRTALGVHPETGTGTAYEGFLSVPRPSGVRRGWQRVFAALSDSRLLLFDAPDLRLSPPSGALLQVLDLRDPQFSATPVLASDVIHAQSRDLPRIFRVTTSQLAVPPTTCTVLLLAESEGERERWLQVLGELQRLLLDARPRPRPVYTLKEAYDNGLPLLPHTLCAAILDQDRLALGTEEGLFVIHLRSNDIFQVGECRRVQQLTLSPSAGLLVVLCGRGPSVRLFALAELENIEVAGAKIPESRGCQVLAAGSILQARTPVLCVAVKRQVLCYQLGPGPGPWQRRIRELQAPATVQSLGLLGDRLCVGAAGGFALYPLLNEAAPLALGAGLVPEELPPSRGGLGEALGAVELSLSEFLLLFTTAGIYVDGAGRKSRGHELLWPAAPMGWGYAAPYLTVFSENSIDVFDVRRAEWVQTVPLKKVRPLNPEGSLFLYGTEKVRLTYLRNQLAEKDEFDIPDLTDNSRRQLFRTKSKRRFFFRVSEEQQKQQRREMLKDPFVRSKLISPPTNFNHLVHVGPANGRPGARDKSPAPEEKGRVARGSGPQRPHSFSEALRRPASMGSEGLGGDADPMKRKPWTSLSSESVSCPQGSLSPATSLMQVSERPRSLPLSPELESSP
Chain of Protein kinase C delta type (Q05655 whole entry): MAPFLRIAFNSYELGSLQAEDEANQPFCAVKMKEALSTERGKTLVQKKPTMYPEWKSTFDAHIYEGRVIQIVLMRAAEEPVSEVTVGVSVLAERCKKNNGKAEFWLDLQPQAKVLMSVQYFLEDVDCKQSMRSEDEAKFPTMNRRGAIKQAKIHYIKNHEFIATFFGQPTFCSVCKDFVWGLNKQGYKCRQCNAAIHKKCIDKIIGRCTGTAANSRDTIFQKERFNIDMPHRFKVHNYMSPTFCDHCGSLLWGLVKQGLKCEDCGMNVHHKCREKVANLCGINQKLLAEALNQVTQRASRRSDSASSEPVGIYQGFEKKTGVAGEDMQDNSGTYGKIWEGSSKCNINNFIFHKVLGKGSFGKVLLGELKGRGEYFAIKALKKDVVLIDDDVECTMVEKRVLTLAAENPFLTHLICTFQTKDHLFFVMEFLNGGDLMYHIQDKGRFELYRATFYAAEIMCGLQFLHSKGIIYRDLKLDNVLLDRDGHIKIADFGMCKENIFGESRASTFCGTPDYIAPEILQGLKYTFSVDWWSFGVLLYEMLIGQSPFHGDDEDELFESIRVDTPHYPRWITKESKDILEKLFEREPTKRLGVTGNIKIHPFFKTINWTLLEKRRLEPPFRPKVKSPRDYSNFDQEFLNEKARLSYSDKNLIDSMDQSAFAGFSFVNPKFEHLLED

Row | Structure (SMILES) | Kd [1] | Kd [2] | Kd [3] | Kd [4] | Kd [5] | Kd [6] | Kd [7] | Kd [8] | Kd [9] | Kd [10]
1 | O=c1[nH]c([C@@H]2CCCN2)nc2c1oc1ccc(Cl)cc12 | > 30 µM (inactive) | > 30 µM (inactive) | > 30 µM (inactive) | > 30 µM (inactive) | > 30 µM (inactive) | > 30 µM (inactive) | > 30 µM (inactive) | > 30 µM (inactive) | > 30 µM (inactive) | > 30 µM (inactive)
2 | COc1ccc(-c2ccc3ncc4c(c3c2)n(-c2ccc(N3CCNCC3)c(C(F)(F)F)c2)c(=O)n4C)cn1 [BGT-226 FREE BASE] | > 30 µM (inactive) | > 30 µM (inactive) | > 30 µM (inactive) | > 30 µM (inactive) | > 30 µM (inactive) | > 30 µM (inactive) | > 30 µM (inactive) | > 30 µM (inactive) | > 30 µM (inactive) | > 30 µM (inactive)
3 | O=S(=O)(c1cccc2c(O)nccc12)N1CCCNCC1 [HYDROXYFASUDIL] | > 30 µM (inactive) | > 30 µM (inactive) | > 30 µM (inactive) | > 30 µM (inactive) | > 30 µM (inactive) | > 30 µM (inactive) | > 30 µM (inactive) | > 30 µM (inactive) | 2.54 µM (active) | > 30 µM (inactive)
